Assay results as given in US5929249A, “Substituted imidazolyl-alkyethio-aldanoic acids” (SmithKline Beecham Corporation, priority 1992, dated 1999).

Test system: pressor response to angiotensin II
Assay: Inhibition of pressor response to angiotensin II in conscious rats
Format: in vivo
Details: Rattus norvegicus, i.v., intravenous angiotensin II 250 mg/kg [sic], change in mean arterial pressure, read-out: IC50 (dose of compound needed to produce 50% inhibition of the control response to angiotensin II)
Protocol: Angiotensin II antagonist activity of the compounds of Formula (I) is assessed by in vitro and in vivo methods. In vitro antagonist activity is determined by the ability of the compounds to compete with ^125 I-angiotensin II for binding to vascular angiotensin II receptors and by their ability to antagonize the contractile response to angiotensin II in the isolated rabbit aorta. In vivo activity is evaluated by the efficacy of the compounds to inhibit the pressor response to exogenous angiotensin II in conscious rats and to lower blood pressure in a rat model of renin dependent hypertension.
Rats are prepared with indwelling femoral arterial and venous catheters and a stomach tube (Gellai et al., Kidney Int. 15:419, 1979). Two to three days following surgery the rats are placed in a restrainer and blood pressure is continuously monitored from the arterial catheter with a pressure transducer and recorded on a polygraph. The change in mean arterial pressure in response to intravenous injections of […] angiotensin II is compared at various time points prior to and following the administration of the compounds intravenously or orally at doses of 0.1 to 300 mg/kg. The dose of compound needed to produce 50% inhibition of the control response to angiotensin II (IC50) is used to estimate the potency of the compounds. […]

Question: For `CCCCc1ncc(CSc2ccccc2C(=O)O)n1Cc1ccc(C(=O)O)cc1` [S-[(2-n-Butyl-1-{(4-carboxyphenyl)methyl}-1H-imidazol-5-yl)methyl]thiosalicyclic Acid], which ED50 is on record?
Answer: Its ED50 is about 0.5 mg/kg.
